Target: T1, Dimer of Gag-Pol polyprotein [501-599,Q508K,L534I,L564I,C568A,C596A] (Human immunodeficiency virus 1, UniProt P03367, C568A/C596A/L534I/L564I/Q508K)
T1 construct: 501-599
Assay: Protease Inhibition Assay
Details: pH 6.4; 25 °C
Description: The Ki values were determined using fluorogenic substrate, 2-(aminobenzoyl)-Thr-Ile-Nle-Phe(p-NO2)-Gln-ArgNH2. A standard curve relating changes in fluorescent intensity to changes in concentration of product was used to convert fluorescent changes into molar velocities. The amount of cleavage was determined by HPLC.

Structure (SMILES) | Ki
O=C(N[C@H]1c2ccccc2C[C@H]1O)[C@H](Cc1ccccc1)C[C@H](O)CN1C(=O)N(Cc2cccc(F)c2)C[C@@H]1Cc1ccccc1 [(2R,4S)-2-benzyl-5-[(5S)-5-benzyl-3-[(3-fluorophenyl)methyl]-2-oxoimidazolidin-1-yl]-4-hydroxy-N-[(1S,2R)-2-hydroxy-2,3-dihydro-1H-inden-1-yl]pentanamide] | 3.2 nM
CS(=O)(=O)c1ccc(CN2C[C@H](Cc3ccccc3)N(C[C@@H](O)C[C@@H](Cc3ccccc3)C(=O)N[C@H]3c4ccccc4C[C@H]3O)C2=O)cc1 [(2R,4S)-2-benzyl-5-[(5S)-5-benzyl-3-[(4-methanesulfonylphenyl)methyl]-2-oxoimidazolidin-1-yl]-4-hydroxy-N-[(1S,2R)-2-hydroxy-2,3-dihydro-1H-inden-1-yl]pentanamide] | 300 nM
COc1ccc(CN2C[C@H](Cc3ccccc3)N(C[C@@H](O)C[C@@H](Cc3ccccc3)C(=O)N[C@H]3c4ccccc4C[C@H]3O)C2=O)cc1 [(2R,4S)-2-benzyl-5-[(5S)-5-benzyl-3-[(4-methoxyphenyl)methyl]-2-oxoimidazolidin-1-yl]-4-hydroxy-N-[(1S,2R)-2-hydroxy-2,3-dihydro-1H-inden-1-yl]pentanamide] | 5.6 nM
O=C(N[C@H]1c2ccccc2C[C@H]1O)[C@H](Cc1ccccc1)C[C@H](O)CN1C(=O)N(Cc2ccncc2)C[C@@H]1Cc1ccccc1 [(2R,4S)-2-benzyl-5-[(5S)-5-benzyl-2-oxo-3-(pyridin-4-ylmethyl)imidazolidin-1-yl]-4-hydroxy-N-[(1S,2R)-2-hydroxy-2,3-dihydro-1H-inden-1-yl]pentanamide] | 190 nM
O=C(N[C@H]1c2ccccc2C[C@H]1O)[C@H](Cc1ccccc1)C[C@H](O)CN1C(=O)N(Cc2ccccn2)C[C@@H]1Cc1ccccc1 [(2R,4S)-2-benzyl-5-[(5S)-5-benzyl-2-oxo-3-(pyridin-2-ylmethyl)imidazolidin-1-yl]-4-hydroxy-N-[(1S,2R)-2-hydroxy-2,3-dihydro-1H-inden-1-yl]pentanamide] | 41 nM
COc1cc(CN2C[C@H](Cc3ccccc3)N(C[C@@H](O)C[C@@H](Cc3ccccc3)C(=O)N[C@H]3c4ccccc4C[C@H]3O)C2=O)cc(OC)c1OC [(2R,4S)-2-benzyl-5-[(5S)-5-benzyl-2-oxo-3-[(3,4,5-trimethoxyphenyl)methyl]imidazolidin-1-yl]-4-hydroxy-N-[(1S,2R)-2-hydroxy-2,3-dihydro-1H-inden-1-yl]pentanamide] | 100 nM
O=C(N[C@H]1c2ccccc2C[C@H]1O)[C@H](Cc1ccccc1)C[C@H](O)CN1C(=O)N(Cc2cccnc2)C[C@@H]1Cc1ccccc1 [(2R,4S)-2-benzyl-5-[(5S)-5-benzyl-2-oxo-3-(pyridin-3-ylmethyl)imidazolidin-1-yl]-4-hydroxy-N-[(1S,2R)-2-hydroxy-2,3-dihydro-1H-inden-1-yl]pentanamide] | 18 nM

Source: BindingDB's records for doi:10.1016/j.bmcl.2004.08.038 (Glaxosmithkline, 2004)
